Measurements taken from patent US10624836B2, “Essential oil of achillea as anti-ageing agent” (L'OREAL, priority 2013, dated 2020).

Columns and labels:
[1] = system: epidermis of a Realskin™ reconstructed skin; assay: Intra-tissue glutathione (GSH) level in reconstructed skin, LC/MS of GS-NEM; type: cell-based; conditions: lipoic acid 250 μmol·l^−1; 16 h at 37° C.; positive control
Method: For this, the GSH level was measured in the epidermis of a Realskin™ reconstructed skin which was: • nontreated (control), • treated with essential oil of Achillea at 0.01% by volume, or • treated with lipoic acid at 250 μmol·l^−1 (positive control).
The reconstructed tissue model kits are conditioned for transport on agar medium. Upon arrival, the tissues were reconditioned in a maintenance medium for a minimum of 16 h at 37° C. in a moisture-saturated atmosphere enriched with 5% CO2. The same medium was used for the incubations in the presence of the substrate.
The various solutions (2 ml) (of essential oil of Achillea at 0.01% by volume and of lipoic acid at […]) were deposited in the wells underneath the skins in order to diffuse through said skins more easily by capillary action. The tissues were then incubated in an incubator at 37° C. for 16 h.
The tissues were ground by means of a Potter grinder in […] of a solution of N-ethylmaleimide (NEM) at 2.5 mmol·l^−1 (excess of NEM). The Potter grinder was then washed with […] of ultrapure water, and 500 μl of 2% formic acid were added. The samples were then centrifuged for 15 minutes at 6000 rpm and at 4° C.
In order to assay the glutathione coupled to the NEM (GS-NEM), […] of the supernatant is diluted in 975 μl of 1% formic acid (1/40) in a 1 ml vial. […]

[2] = system: primary normal human keratinocytes; assay: Collagen IV production by keratinocytes, in situ immunolabelling and image analysis; type: cell-based; conditions: TGF-β tested at 10 ng/ml; 72 hours at 37° C.; positive control
Method: The keratinocytes were seeded into and cultured in culture medium for 24 hours.
The culture medium (2.5 ml) was then replaced: • either with test medium containing TGF-β (Transforming Growth Factor β) at 10 ng/ml (positive control), • or with test medium containing the essential oil of Example 1 at 0.003% by volume, • or with the same culture medium (control).
The cells were then incubated for 72 hours at 37° C.
The culture medium was removed and the cells were rinsed, fixed and permeabilized. They were then labelled with an Anti-Collagen IV primary antibody sold by Abcam (reference: Ab6586) directed against the protein of interest (collagen IV). This antibody was visualized with an Alexa Fluor® 488 Goat Anti-Rabbit IgG (H+L) secondary antibody sold by Invitrogen (reference: A11008) coupled to a fluorochrome (GAR-Alexa 488). In parallel, the nuclei of the cells were stained with Hoechst 33258 (bisbenzimide).
The image acquisition was carried out with an INCellAnalyzer™1000 (GE Healthcare) high-resolution imaging system. For each well, 5 digitized images were acquired.
The labellings were quantified by measuring the fluorescence intensity of the proteins relative to the number of nuclei identified by the Hoechst product (integration of the digital data using the Developer Toolbox 1.5 software, GE Healthcare).

Compound	increase in the GSH level relative to the nontreated tissues [1]	collagen IV production by the keratinocytes, relative to the control [2]
O=C(O)CCCC[C@@H]1CCSS1 (racemic) [lipoic acid]	52.0+/−12.7%	
TGF-β		594%
